This is an account of results in US7910612B2, “4-oxy-N-[1,3,4]-thiadiazol-2-yl-benzene sulfonamides, pharmaceutical compositions and methods for their therapeutic use” (Sanofi-Aventis, priority 2005, dated 2011).

In test [1] the test system is cynomolgus monkeys. The conditions noted are these: cited from earlier work.
In test [2] the test system is rhesus monkeys. The conditions noted are these: cited from earlier work.
The test system of test [3] is healthy volunteers. Particulars: two weeks clinical trials in healthy volunteers; cited from earlier work.
Test [4] has as its target T1, human PPARdelta (Homo sapiens, UniProt Q03181).
T1 construct: amino acids S139-Y441; expressed in transfected cells; host or cells: HEK (human embryo kidney) cells, stably transfected, pcDNA3 vector
T1 sequence (Q03181 139-441): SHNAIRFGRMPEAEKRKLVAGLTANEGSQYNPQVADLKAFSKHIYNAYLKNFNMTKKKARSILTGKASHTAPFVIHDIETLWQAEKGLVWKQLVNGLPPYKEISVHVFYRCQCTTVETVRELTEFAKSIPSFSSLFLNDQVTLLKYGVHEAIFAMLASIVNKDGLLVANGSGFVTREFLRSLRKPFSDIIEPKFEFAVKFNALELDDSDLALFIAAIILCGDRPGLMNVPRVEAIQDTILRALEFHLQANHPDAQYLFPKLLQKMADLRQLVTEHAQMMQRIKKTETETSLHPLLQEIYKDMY
The test can be described thus: cellular PPARdelta assay (stably transfected HEK luciferase reporter cell line). It counts as cell-based. The method, then: The potency of substances which bind to human PPARdelta and activate it in an agonistic manner is analyzed using a stably transfected HEK cell line (HEK=human embryo kidney) which is referred to here as PPARdelta reporter cell line. In analogy to the assay described for PPARalpha, the PPARdelta reporter cell line also contains two genetic elements, a luciferase reporter element (pdeltaM-GAL4-Luc-Zeo) and a PPARdelta fusion protein (GR-GAL4-humanPPARdelta-LBD) which mediates expression of the luciferase reporter element depending on a PPARdelta ligand. The stably and constitutively expressed fusion protein GR-GAL4-humanPPARdelta-LBD binds in the cell nucleus of the PPARdelta reporter cell line via the GAL4 protein portion to the GAL4 DNA binding motifs 5′-upstream of the luciferase reporter element which is stably integrated in the genome of the cell line. There is only little expression of the luciferase reporter gene in the absence of a PPARdelta ligand if fatty acid-depleted fetal calf serum (cs-FCS) is used in the assay. PPARdelta ligands bind and activate the PPARdelta fusion protein and thereby stimulate expression of the luciferase reporter gene. The luciferase which is formed can be detected by means of chemiluminescence via an appropriate substrate.
The production of the stable PPARdelta reporter cell line is based on a stable HEK-cell clone which was stably transfected with a luciferase reporter element. This step was already described above in the section “construction of the PPARalpha reporter cell line”. In a second step, the PPARdelta fusion protein (GR-GAL4-humanPPARdelta-LBD was stably introduced into this cell clone. For this purpose, the cDNA coding for the N-terminal 76 amino acids of the glucocorticoid receptor (Accession #P04150) was linked to the cDNA section coding for amino acids 1-147 of the yeast transcription factor GAL4 (Accession #P04386). The cDNA of the ligand-binding domain of the human PPARdelta receptor (amino acids S139-Y441; Accession #L07592) was cloned in at the 3′-end of this GR-GAL4 construct. The fusion construct prepared in this way (GR-GAL4-humanPPARdelta-LBD) was recloned into the plasmid pcDNA3 (Invitrogen) in order to enable constitutive expression by the cytomegalovirus promoter. This plasmid was linearized with a restriction endonuclease and stably transfected into the previously described cell clone containing the luciferase reporter element. The resulting PPARdelta reporter cell line which contains a luciferase reporter element and constitutively expresses the PPARdelta fusion protein (GR-GAL4-human PPARdelta-LBD) was isolated by selection with zeocin (0.5 mg/ml) and G418 (0.5 mg/ml).
The activity of PPARdelta agonists is determined in a 3-day assay in exact analogy to the procedure already described for the PPARalpha reporter cell line except that the PPARdelta reporter cell line and a specific PPARdelta agonist was used as a standard to control test efficacy. […] Compounds of the invention of the formula I activate the PPARdelta receptor.

The subject of test [5] is diabetic animal model. The conditions noted are these: cited from earlier work.
Test [6] has as its system obese, insulin resistant rhesus monkeys. The conditions noted are these: cited from earlier work.

Structures are written as SMILES.

Consider `CCCc1c(OCCCSc2nnc(SCC(=O)O)s2)ccc(C(C)=O)c1O` [YM-16638], for which the plasma lipids entry was “significantly lowers plasma lipids” in test [1], “significantly lowers plasma lipids” in test [2] and “acts in a similar manner” in test [3].

In the case of `COc1ccc2oc(COc3ccc(S(=O)(=O)Nc4nnc(C(C)C)s4)cc3)cc2c1` [Example 12, N-(5-Isopropyl-[1,3,4]thiadiazol-2-yl)-4-(5-methoxy-benzofuran-2-ylmethoxy)-benzenesulfonamide], the EC50 in test [4] is 480 nM.

For `CCCc1c(OCCCOc2ccc(OCC(=O)O)cc2)ccc(C(C)=O)c1O` [Example L-165041], in test [5], the plasma cholesterol entry is “raises plasma cholesterol”.

Regarding `Cc1cc(SCc2sc(-c3ccc(C(F)(F)F)cc3)nc2C)ccc1OCC(=O)O` [GW501516], in test [6], the HDL-cholesterol result is recorded as “raises HDL-cholesterol” and the “plasma LDL-cholesterol” value is reported as “decreases plasma LDL-cholesterol”. Moreover, in test [6] (plasma), the insulin levels entry is given as “decreases” and the triglycerides result is “decreases”.
